Data published in ChEMBL document CHEMBL5214955, “Design, synthesis and activity evaluation of Hedgehog inhibitor Itraconazole derivatives in A549 cells” (Bioorg Med Chem Lett, 2022).
Activity calls are given as the source filed them. The calls are words filed in the database; no cut-off is given here.

How the values were obtained:
A549 [1] = test: Antiproliferative activity against human A549 cells assessed as inhibition of cell proliferation incubated for 48 hrs by MTT assay; type: functional, cell-based; conditions: A549, 48 h
HepG2 = test: Antiproliferative activity against human HepG2 cells assessed as inhibition of cell proliferation incubated for 48 hrs by MTT assay; type: functional, cell-based; conditions: HepG2, 48 h
[2] = Cytotoxicity against human L02 cells assessed as inhibition of cell proliferation incubated for 48 hrs by MTT assay; type: toxicity, cell-based
[3] = Inhibition of hedgehog signalling pathway in human A549 cells assessed as reduction in Gli gene expression incubated for 24 hrs by qPCR analysis; type: cell-based; conditions: A549, 24 h
A549 [4] = test: Induction of apoptosis in human A549 cells assessed as necrotic cells at 30 uM incubated for 24 hrs by Annexin V-FITC/PI staining based flow cytometric analysis (reference value: 0.084%); type: functional
A549 [5] = test: Induction of apoptosis in human A549 cells assessed as early apoptotic cells at 30 uM incubated for 24 hrs by Annexin V-FITC/PI staining based flow cytometric analysis (reference value: 0.316%); type: functional
A549 [6] = test: Induction of apoptosis in human A549 cells assessed as late apoptotic cells at 30 uM incubated for 24 hrs by Annexin V-FITC/PI staining based flow cytometric analysis (reference value: 1.40%); type: functional
A549 [7] = test: Induction of apoptosis in human A549 cells assessed as viable cells at 30 uM incubated for 24 hrs by Annexin V-FITC/PI staining based flow cytometric analysis (reference value: 98.2%); type: functional; conditions: read-out: Activity
A549 [8] = test: Antiproliferative activity against human A549 cells assessed as inhibition of clone formation at 10 uM incubated for 1 day followed by culture in new medium for 7 days by crystal violet staining based assay relative to control; type: functional; set-up: scale not given: the % may be the effect or the level left; conditions: time 8 day
A549 [9] = test: Induction of intracellular reactive oxygen species production in human A549 cells assessed as increase in number ROS positive cells at 30 uM and measured after 4 hrs by H2DCFH-DA staining based flow cytometric analysis; type: functional, cell-based
A549 [10] = test: Induction of intracellular reactive oxygen species production in human A549 cells assessed as increase in number ROS positive cells at 30 uM and measured after 24 hrs by H2DCFH-DA staining based flow cytometric analysis (Rvb=1.10%); type: functional
A549 [11] = test: Induction of intracellular reactive oxygen species production in human A549 cells assessed as increase in number ROS positive cells at 30 uM and measured after 4 hrs by DCFH-DA probe based confocal microscopy; type: functional, cell-based
A549 [12] = test: Induction of mitochondrial membrane potential loss in human A549 cells assessed as assessed as proportion of MMP decreased cells at 30 uM and measured after 4 hrs by JC-1 staining based flow cytometry assay; type: functional, cell-based
A549 [13] = test: Induction of mitochondrial membrane potential loss in human A549 cells assessed as assessed as proportion of MMP decreased cells at 30 uM and measured after 24 hrs by JC-1 staining based flow cytometry assay (reference value: 7.50%); type: functional; set-up: scale not given: the % may be the effect or the level left

Row | SMILES | IC50 (A549 [1]) [µM] | IC50 (HepG2) [µM] | IC50 [3] [µM] | IC50 at 48 h [2] [µM] | Activity (A549 [4]) [%] | Activity (A549 [5]) [%] | Activity (A549 [6]) [%] | viability at 30 µM (A549 [7]) [%] | Activity (A549 [8]) [%] | Activity (A549 [9]) | Activity (A549 [10]) [%] | Activity (A549 [11]) | Activity (A549 [12]) | Activity (A549 [13]) [%]
1 | O=C(CCc1ccccc1)Nc1ccc(N2CCN(c3ccc(OC[C@@H]4CO[C@@](Cn5cncn5)(c5ccc(Cl)cc5Cl)O4)cc3)CC2)cc1 | 2.06 | 5.34 | 0.089 | > 50 | 1.07 | 12.4 | 51.8 | 34.7 | 22 | Active | 62.9 | Active | Active | 55.4
2 | O=C(Nc1ccc(N2CCN(c3ccc(OC[C@@H]4CO[C@@](Cn5cncn5)(c5ccc(Cl)cc5Cl)O4)cc3)CC2)cc1)c1cccc(F)c1 | 6.64 | 10.8 | – | > 50 | – | – | – | – | – | – | – | – | – | –
3 | CCC(=O)Nc1ccc(N2CCN(c3ccc(OC[C@@H]4CO[C@@](Cn5cncn5)(c5ccc(Cl)cc5Cl)O4)cc3)CC2)cc1 | 2.55 | 5.46 | 0.873 | > 50 | – | – | – | – | – | – | – | – | – | –
4 | O=C(Nc1ccc(N2CCN(c3ccc(OC[C@@H]4CO[C@@](Cn5cncn5)(c5ccc(Cl)cc5Cl)O4)cc3)CC2)cc1)c1cccs1 | 4.33 | 9.77 | – | > 50 | – | – | – | – | – | – | – | – | – | –
5 | O=C(CC1CCOCC1)Nc1ccc(N2CCN(c3ccc(OC[C@@H]4CO[C@@](Cn5cncn5)(c5ccc(Cl)cc5Cl)O4)cc3)CC2)cc1 | 10 | 21.1 | – | > 50 | – | – | – | – | – | – | – | – | – | –
6 | Cc1ccc(C(=O)Nc2ccc(N3CCN(c4ccc(OC[C@@H]5CO[C@@](Cn6cncn6)(c6ccc(Cl)cc6Cl)O5)cc4)CC3)cc2)o1 | 4.75 | 8.7 | – | > 50 | – | – | – | – | – | – | – | – | – | –
7 | O=C(CCCc1ccccc1)Nc1ccc(N2CCN(c3ccc(OC[C@@H]4CO[C@@](Cn5cncn5)(c5ccc(Cl)cc5Cl)O4)cc3)CC2)cc1 | 3.78 | 10.8 | 0.782 | > 50 | – | – | – | – | – | – | – | – | – | –
8 | O=C(Cc1cccs1)Nc1ccc(N2CCN(c3ccc(OC[C@@H]4CO[C@@](Cn5cncn5)(c5ccc(Cl)cc5Cl)O4)cc3)CC2)cc1 | 2.13 | 5.05 | 0.251 | > 50 | 1.89 | 7.54 | 46.1 | 44.5 | 28 | Active | 53 | Active | Active | 44.9
9 | O=C(Nc1ccc(N2CCN(c3ccc(OC[C@@H]4CO[C@@](Cn5cncn5)(c5ccc(Cl)cc5Cl)O4)cc3)CC2)cc1)c1ccc(F)c(F)c1 | 8.69 | 19.9 | 0.844 | > 50 | – | – | – | – | – | – | – | – | – | –

The remaining compounds from weak to strong by IC50 (A549 [1]), led by results:

Row | IC50 (A549 [1]) [µM] | IC50 (HepG2) [µM] | IC50 [3] [µM] | SMILES | IC50 at 48 h [2] [µM] | Activity (A549 [4]) [%] | Activity (A549 [5]) [%] | Activity (A549 [6]) [%] | viability at 30 µM (A549 [7]) [%] | Activity (A549 [8]) [%] | Activity (A549 [9]) | Activity (A549 [10]) [%] | Activity (A549 [11]) | Activity (A549 [12]) | Activity (A549 [13]) [%]
10 | 10.5 | 22.3 | – | O=C(Nc1ccc(N2CCN(c3ccc(OC[C@@H]4CO[C@@](Cn5cncn5)(c5ccc(Cl)cc5Cl)O4)cc3)CC2)cc1)c1ccco1 | > 50 | – | – | – | – | – | – | – | – | – | –
11 | 5.34 | 14.1 | – | CCCCC(=O)Nc1ccc(N2CCN(c3ccc(OC[C@@H]4CO[C@@](Cn5cncn5)(c5ccc(Cl)cc5Cl)O4)cc3)CC2)cc1 | > 50 | – | – | – | – | – | – | – | – | – | –
12 | 3 | 7.87 | 0.125 | CCC(C)n1ncn(-c2ccc(N3CCN(c4ccc(OCC5COC(Cn6cncn6)(c6ccc(Cl)cc6Cl)O5)cc4)CC3)cc2)c1=O (stereo unspecified) [ITRACONAZOLE] | > 50 | 3.84 | 7.65 | 34.6 | 53.9 | 34 | – | 38.3 | – | – | 36.3
13 | 2.99 | 9.93 | – | CCCC(=O)Nc1ccc(N2CCN(c3ccc(OC[C@@H]4CO[C@@](Cn5cncn5)(c5ccc(Cl)cc5Cl)O4)cc3)CC2)cc1 | > 50 | – | – | – | – | – | – | – | – | – | –
14 | 2.61 | 7.01 | 0.457 | O=C(CCCCc1ccccc1)Nc1ccc(N2CCN(c3ccc(OC[C@@H]4CO[C@@](Cn5cncn5)(c5ccc(Cl)cc5Cl)O4)cc3)CC2)cc1 | > 50 | – | – | – | – | – | – | – | – | – | –
